This data set has as its system healthy male volunteers. Briefly: Phase 1 single rising dose clinical safety study. Format: in vivo, human. An excerpt: Primary objective: to study the safety and tolerability of F991 at increasing single dose levels in healthy male volunteers
Design: This study was a double-blind, placebo-controlled, single rising dose study in two alternating panels of eight healthy male volunteers. In each panel, two volunteers received placebo throughout the study and the other six volunteers received three increasing single doses of F991.
Safety assessments: vital signs; adverse events (including eyesight); ECG four times each period; clinical laboratory: on admission for each period
Panel I: period 1: 0.08 mg/kg F991 or placebo iv infusion • period 2: 0.8 mg/kg F991 or placebo iv infusion • period 3: 3.2 mg/kg F991 or placebo iv infusion
Panel II: period 1: 0.32 mg/kg F991 or placebo iv infusion • period 2: 1.6 mg/kg F991 or placebo iv infusion • period 3: 6.4 mg/kg F991 or placebo iv infusion Criteria for Evaluation
Safety: adverse events, clinical laboratory test results, ECG recordings, vital signs and physical examination

Where [1] appears, read: single i.v. doses 0.08-6.4 mg/kg.

Peptide text beside a SMILES is read from it.

On to `CC(C)C[C@H](NC(=O)[C@H](CS)NC(=O)[C@H](CS)NC(=O)[C@H](Cc1c[nH]cn1)NC(=O)CNC(=O)[C@H](CO)NC(=O)[C@H](Cc1c[nH]c2ccccc12)NC(=O)[C@H](Cc1c[nH]cn1)NC(=O)[C@H](C)N)C(=O)O` [F991] (H-AHWSGHCCL-OH), for which, where the note is “I.V. single rising doses up to 6.4 mg/kg”, the safety and tolerability entry is “safe and well tolerated”. In addition, under setting [1], the “SAEs during the study” value was “no SAEs”; the “clinical laboratory data, vital signs, ECG and physical examination” value is “no clinically significant abnormalities”; the “correlation between dose and number, frequency and intensity of AEs” value is reported as “No correlation”; the “most frequently reported AEs for volunteers on active drug” value is on record as “eye disorders”.

(Values after US20050191290A1, “Means and methods for manipulating hypersensitivity-like responses” (priority 2002, published 2005).)
